Test results taken from ChEMBL document CHEMBL2074084, “Cloning and functional characterization of a novel rat organic anion transporter mediating basolateral uptake of methotrexate in the kidney” (J Biol Chem, 1996).

Columns and labels:
Type in all cases: functional, cell-based
[1] = target: T1, Solute carrier organic anion transporter family member 1A3 (Rattus norvegicus, UniProt P70502); test: TP_TRANSPORTER: inhibition of MTX uptake (MTX: 0.026 uM, Folic acid: 100 uM) in OAT-K1-expressing LLC-PK1 cells; details: pig, llc-pk1, 100 µM
T1 sequence (P70502 whole entry): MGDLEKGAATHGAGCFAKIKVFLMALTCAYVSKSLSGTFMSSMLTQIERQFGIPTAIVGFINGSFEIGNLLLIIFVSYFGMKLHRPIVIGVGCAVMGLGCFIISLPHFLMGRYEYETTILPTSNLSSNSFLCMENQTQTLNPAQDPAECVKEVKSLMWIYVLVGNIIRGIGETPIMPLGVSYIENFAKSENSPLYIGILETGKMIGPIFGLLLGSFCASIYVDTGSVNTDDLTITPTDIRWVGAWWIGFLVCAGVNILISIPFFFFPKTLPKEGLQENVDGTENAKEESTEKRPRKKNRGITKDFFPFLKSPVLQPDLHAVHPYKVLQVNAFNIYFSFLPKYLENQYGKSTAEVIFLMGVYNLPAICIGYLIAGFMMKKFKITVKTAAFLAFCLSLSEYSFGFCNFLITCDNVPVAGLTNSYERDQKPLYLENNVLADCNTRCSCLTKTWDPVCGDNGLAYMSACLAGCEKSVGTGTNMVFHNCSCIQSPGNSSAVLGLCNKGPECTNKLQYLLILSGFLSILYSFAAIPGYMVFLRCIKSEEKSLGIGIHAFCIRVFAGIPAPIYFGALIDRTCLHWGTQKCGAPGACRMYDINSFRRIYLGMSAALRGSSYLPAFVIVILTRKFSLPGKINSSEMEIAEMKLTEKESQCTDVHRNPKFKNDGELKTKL

[2] = target: T1, Solute carrier organic anion transporter family member 1A3; test: TP_TRANSPORTER: inhibition of MTX uptake (MTX: 0.026 uM, BSP: 100 uM) in OAT-K1-expressing LLC-PK1 cells; details: pig, llc-pk1, 100 µM
[3] = substrate: CN(Cc1cnc2nc(N)nc(N)c2n1)c1ccc(C(=O)N[C@@H](CCC(=O)O)C(=O)O)cc1; test: TP_TRANSPORTER: uptake in OAT-K1-expressing LLC-PK1 cells

Nc1nc2ncc(CNc3ccc(C(=O)N[C@@H](CCC(=O)O)C(=O)O)cc3)nc2c(=O)[nH]1 [FOLIC ACID]
Activity [1]: inhibitor [(at a rough estimate) 35 % of control]

O=C1OC(c2ccc(O)c(S(=O)(=O)[O-])c2)(c2ccc(O)c(S(=O)(=O)[O-])c2)c2c(Br)c(Br)c(Br)c(Br)c21.[Na+].[Na+] [SULFOBROMOPHTHALEIN SODIUM]
Activity [2]: inhibitor [(at a rough estimate) 35 % of control]

B1: Solute carrier organic anion transporter family member 1A3 (Rattus norvegicus) (protein)
chain: MGDLEKGAATHGAGCFAKIKVFLMALTCAYVSKSLSGTFMSSMLTQIERQFGIPTAIVGFINGSFEIGNLLLIIFVSYFGMKLHRPIVIGVGCAVMGLGCFIISLPHFLMGRYEYETTILPTSNLSSNSFLCMENQTQTLNPAQDPAECVKEVKSLMWIYVLVGNIIRGIGETPIMPLGVSYIENFAKSENSPLYIGILETGKMIGPIFGLLLGSFCASIYVDTGSVNTDDLTITPTDIRWVGAWWIGFLVCAGVNILISIPFFFFPKTLPKEGLQENVDGTENAKEESTEKRPRKKNRGITKDFFPFLKSPVLQPDLHAVHPYKVLQVNAFNIYFSFLPKYLENQYGKSTAEVIFLMGVYNLPAICIGYLIAGFMMKKFKITVKTAAFLAFCLSLSEYSFGFCNFLITCDNVPVAGLTNSYERDQKPLYLENNVLADCNTRCSCLTKTWDPVCGDNGLAYMSACLAGCEKSVGTGTNMVFHNCSCIQSPGNSSAVLGLCNKGPECTNKLQYLLILSGFLSILYSFAAIPGYMVFLRCIKSEEKSLGIGIHAFCIRVFAGIPAPIYFGALIDRTCLHWGTQKCGAPGACRMYDINSFRRIYLGMSAALRGSSYLPAFVIVILTRKFSLPGKINSSEMEIAEMKLTEKESQCTDVHRNPKFKNDGELKTKL
Km [3]: 1 µM
